Results: PMC9282634, “High-Throughput Crystallography Reveals Boron-Containing Inhibitors of a Penicillin-Binding Protein with Di- and Tricovalent Binding Modes” (Journal of Medicinal Chemistry, 2021)
Like-named read-outs stand apart in the source and are kept apart here.

Experiments:
PBP3 (PaPBP3) [1] = molecular target: T1, PBP3 (PaPBP3) (Pseudomonas aeruginosa, UniProt G3XD46); assay: biochemical; design: S2d thioester turnover with DTNB, absorbance 412 nm, residual activity after 1 h pre-incubation; conditions: read-out: Residual Activity by S2d Turnover (%)
T1 construct: gene ftsI; residues 50–579
T1 sequence (G3XD46 50-579): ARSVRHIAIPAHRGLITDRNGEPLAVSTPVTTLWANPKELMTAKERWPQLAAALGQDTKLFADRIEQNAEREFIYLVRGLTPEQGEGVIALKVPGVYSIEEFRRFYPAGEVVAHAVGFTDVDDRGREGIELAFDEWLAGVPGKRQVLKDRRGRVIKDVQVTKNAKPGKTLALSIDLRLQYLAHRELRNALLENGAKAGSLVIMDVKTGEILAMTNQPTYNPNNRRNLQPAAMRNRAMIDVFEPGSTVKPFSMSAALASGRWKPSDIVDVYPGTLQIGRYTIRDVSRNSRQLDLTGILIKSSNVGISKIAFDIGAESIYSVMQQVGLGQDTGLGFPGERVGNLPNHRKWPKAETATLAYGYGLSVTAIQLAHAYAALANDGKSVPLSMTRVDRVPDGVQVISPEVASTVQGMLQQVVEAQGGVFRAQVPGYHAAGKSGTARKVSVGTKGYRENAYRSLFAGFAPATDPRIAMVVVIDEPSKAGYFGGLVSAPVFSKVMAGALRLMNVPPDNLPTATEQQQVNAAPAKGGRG
Procedure: Residual activities were measured by the ability of a potential inhibitor to hinder hydrolysis of the substrate analogue S2d (2-((benzoyl-D-alanyl)thio)acetic acid) turnover by PaPBP3 as described for other PBPs.[4],[24],[53],[54] Assays were conducted in 50 μL in a 384-well, clear-bottom, black-walled microplate (Greiner Bio-One). PaPBP3 (400 nM) was incubated with 2 mM of each compound for 1 h at 30 °C in 100 mM sodium phosphate, pH 7, supplemented with 0.01% (v/v) triton. A solution of 5,5′-dithiobis-(2-nitrobenzoic acid) and S2d diluted in the same buffer (to give a final concentration in the assay of 1 mM for both reagents) was added to each well to initiate the reaction. The final concentration of protein was 200 nM and the final inhibitor concentration was 1 mM. A ClarioStar plate reader (BMG Labtech) was used to follow the reaction by observing the change in absorbance at 412 nm at 30 °C. […] The initial rate of S2d turnover was calculated using GraphPad prism (Prism 8 for macOS, GraphPad Software LLC) and the standard error calculated from three independent technical replicates. The rate of non-enzymatic S2d hydrolysis was subtracted from each rate to find the corrected rate. For each compound, the ratio of the corrected rate to the untreated control corrected rate was expressed as a percentage to give the residual activity. [drawing 2] Table 1 Residual Activities and Kis of Compounds Tested in the BOCILLIN FL Competition Assay for Binding to PaPBP3 and Residual Activities Measured in S2d Turnover Assays ^a a For both BOCILLIN FL FA and S2d assays, residual activities in the presence of a 1 mM inhibitor are a percentage of the activity of the untreated control. Errors are standard errors (n = 3) from independent measurements. b Residual activity measured at 100 μM due to solubility issues at 1 mM. Ki, calculated with 11 concentrations of each compound and determined using global fitting in Kintek Global Explorer.[52],[59]

PBP3 (PaPBP3) [2] = molecular target: T1, PBP3 (PaPBP3); assay: biochemical; design: BOCILLIN FL fluorescence anisotropy, residual PBP3 binding after 1 h pre-incubation with compound; conditions: read-out: Residual Activity by BOCILLIN FL FA (%)
Procedure: Unless otherwise stated, assays were run in triplicate using a 60 nM purified protein (see above), 30 nM BOCILLIN FL in pH 7 100 mM sodium phosphate buffer, with 0.01% Triton to reduce promiscuous ligand binding[23] and reduce binding of the protein to the plate. Assays were run in triplicate in a volume of 50 μL, in black, flat-bottom, 384-well microplates (Grenier Bio-One, Austria) at 30 °C. The change in FA was measured using a ClarioStar plate reader (BMG Labtech) with polarized filters at excitation: 482–16, emission: F: 530–4, and calculated using MARS software v3.32 (BMG Labtech) using the equation [drawing 1] where Fpara is the fluorescence intensity parallel to the excitation plane and Fperp is fluorescence intensity perpendicular to the excitation plane. Residual activities were determined by pre-incubating the test compound (1024 μM) and protein for 1 h at 30 °C before the reaction was initiated by the addition of BOCILLIN FL. The change in FA after 30 min was compared to the uninhibited control to determine the residual activity. In order to calculate Ki, the compound (at 11 concentrations: 1–1024 μM) and BOCILLIN FL were mixed and the reaction was initiated by the addition of PBP. Also included in the model were progress curves of nine concentrations of PBP (40–110 nM). Inhibition plots with meropenem and ceftazidime were done to ensure the correct parameters for BOCILLIN FL binding were used. Progress curves were analyzed with KinTek, USA, as described;[52],[69] reported errors represent the standard error. The acylation of a PBP by BOCILLIN FL (Figure S1) can be described by a simple one-step model.[52] However, unlike the previous studies, we found it was necessary to include a term (k2) to account for the deacylation of BOCILLIN FL to release a hydrolyzed product (Figure S1). The fluorescence intensity was constant throughout the reaction. Inhibitor binding was modeled as a reversible reaction to form the enzyme–inhibitor complex (Figure S1). Ki was calculated as the ratio of the off-rate koff to the on-rate kon (Figure S1). Table 1 Residual Activities and Kis of Compounds Tested in the BOCILLIN FL Competition Assay for Binding to PaPBP3 and Residual Activities Measured in S2d Turnover Assays ^a a For both BOCILLIN FL FA and S2d assays, residual activities in the presence of a 1 mM inhibitor are a percentage of the activity of the untreated control. Errors are standard errors (n = 3) from independent measurements. b Residual activity measured at 100 μM due to solubility issues at 1 mM. Ki, calculated with 11 concentrations of each compound and determined using global fitting in Kintek Global Explorer.[52],[59]

PBP3 (PaPBP3) [3] = molecular target: T1, PBP3 (PaPBP3); assay: crystal structure; BOCILLIN FL fluorescence anisotropy competition (Ki); assay type: biochemical
PBP3 (PaPBP3) [4] = molecular target: T1, PBP3 (PaPBP3); assay: biochemical; design: BOCILLIN FL competition fluorescence anisotropy, progress curves globally fitted in KinTek to reversible one-step model; conditions: BOCILLIN FL competition
Procedure: Unless otherwise stated, assays were run in triplicate using a 60 nM purified protein (see above), 30 nM BOCILLIN FL in pH 7 100 mM sodium phosphate buffer, with 0.01% Triton to reduce promiscuous ligand binding[23] and reduce binding of the protein to the plate. Assays were run in triplicate in a volume of 50 μL, in black, flat-bottom, 384-well microplates (Grenier Bio-One, Austria) at 30 °C. The change in FA was measured using a ClarioStar plate reader (BMG Labtech) with polarized filters at excitation: 482–16, emission: F: 530–4, and calculated using MARS software v3.32 (BMG Labtech) using the equation [drawing 1] where Fpara is the fluorescence intensity parallel to the excitation plane and Fperp is fluorescence intensity perpendicular to the excitation plane. Residual activities were determined by pre-incubating the test compound (1024 μM) and protein for 1 h at 30 °C before the reaction was initiated by the addition of BOCILLIN FL. […] Progress curves were analyzed with KinTek, USA, as described;[52],[69] reported errors represent the standard error. […] The fluorescence intensity was constant throughout the reaction. […] Ki was calculated as the ratio of the off-rate koff to the on-rate kon (Figure S1). 1–15 were screened for PaPBP3 inhibition at 1 mM using an established fluorescence anisotropy (FA) assay.[52] […]

Compound	remaining activity at 1000 µM (PBP3 (PaPBP3) [1])	remaining activity at 1000 µM (PBP3 (PaPBP3) [2])	Ki (PBP3 (PaPBP3) [3])	Ki (PBP3 (PaPBP3) [4])
O=C(O)c1ccc2c(c1)B(O)OC2 [compound 3]	57.8 ± 0.6%	75 ± 1%		
CNC(=O)CNC(=O)c1ccc2c(c1)B(O)OC2 [compound 5]	> 90%	> 90%		
NC(=O)[C@@H](Cc1ccccc1)NC(=O)c1ccc2c(c1)B(O)OC2 [compound 6]	> 90%	> 90%		
COC(=O)[C@H](NC(=O)c1ccc2c(c1)B(O)OC2)c1ccccc1 [compound 7]	> 90%	> 90%		
O=C1CN(C(=O)[C@@H](Cc2ccccc2)NC(=O)c2ccc3c(c2)B(O)OC3)CCN1 [compound 11]	80.9 ± 1.3%	84 ± 1%		
NC(=O)[C@H](NC(=O)c1ccc2c(c1)B(O)OC2CC(=O)O)c1ccccc1 (some centres unmarked) [compound 12, 12]	19.6 ± 0.4%	16 ± 6%	73.9 ± 0.8 µM	
CN1CCN(C(=O)CNC(=O)c2ccc3c(c2)B(O)OC3CC(=O)O)CC1=O (centres unmarked) [compound 13, 13]	47.5 ± 0.6%	42 ± 6%	172 ± 3 µM	
O=C(O)CC1OB(O)c2ccc(OCc3ccccc3)cc21 (centres unmarked) [compound 15, 2-(5-(Benzyloxy)-1-hydroxy-1,3-dihydrobenzo[c][1,2]oxaborol-3-yl)acetic Acid]			78.1 ± 0.9 µM	
O=C(O)C[C@@H]1CC[C@H](NC(=O)Cc2cccs2)B(O)O1 [vaborbactam]	75.8 ± 0.7%	54 ± 5%		201 ± 2.3 µM
